Test results from patent US8148391B2 (Cephalon, Inc., priority 2006, dated 2012).
Read-outs that look alike come from different tables or passages of the source. Each block holds one compound with its values, some of them ahead of it.

Tests used:
[1] = molecular target: T1, baculovirus-expressed ALK (Homo sapiens, UniProt Q9UM73); test: ALK Kinase Assay (ELISA-type, time-resolved fluorescence); assay type: biochemical
T1 construct: host or cells: baculovirus expression system
In short: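 Substrate coating: phospholipase C-γ, 10 μg/mL in TBS. Kinase step: 30 ng/ml ALK, 15 min, 37° C. Detection and analysis: Eu-N1 PT66 antibody, with IC50 fitted as a sigmoidal variable-slope dose-response curve.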

[2] = molecular target: T2, c-Met (cytoplasmic domain) (Homo sapiens, UniProt P08581); test: c-Met Kinase Assay (same methods as for ALK, with modifications); assay type: biochemical
T2 construct: 10 ng/mL c-Met (cytoplasmic domain, Invitrogen Corporation #PV3143); purchased Invitrogen Corporation PV3143
In short: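 This plate-based kinase format uses immobilized phospholipase C-γ as substrate, phosphorylated by c-Met cytoplasmic domain (10 ng/mL) at 37° C for 15 minutes.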

[3] = 1 μM ATP (Km level), 30 ng/ml ALK, 37° C., 15 minutes, read-out: ALK Activity (ALK kinase inhibition, IC50 class)
[4] = 1 μM ATP (Km level), 10 ng/mL c-Met, read-out: cMet Activity (c-Met kinase inhibition, IC50 class)
[5] = 1 μM ATP (Km level), read-out: ALK Activity (ALK Kinase Inhibition, IC50)
[6] = 1 μM ATP (Km level), read-out: cMet Activity (c-Met Kinase Inhibition, IC50)
[7] = ALK kinase inhibition, 1 μM ATP, read-out: ALK Activity
[8] = c-Met kinase inhibition, 1 μM ATP, read-out: cMet Activity
[9] = ALK kinase inhibition, 1 μM ATP (Km level), read-out: ALK Activity
[10] = c-Met kinase inhibition, 1 μM ATP (Km level), read-out: cMet Activity

T1 sequence (Q9UM73 19-1620): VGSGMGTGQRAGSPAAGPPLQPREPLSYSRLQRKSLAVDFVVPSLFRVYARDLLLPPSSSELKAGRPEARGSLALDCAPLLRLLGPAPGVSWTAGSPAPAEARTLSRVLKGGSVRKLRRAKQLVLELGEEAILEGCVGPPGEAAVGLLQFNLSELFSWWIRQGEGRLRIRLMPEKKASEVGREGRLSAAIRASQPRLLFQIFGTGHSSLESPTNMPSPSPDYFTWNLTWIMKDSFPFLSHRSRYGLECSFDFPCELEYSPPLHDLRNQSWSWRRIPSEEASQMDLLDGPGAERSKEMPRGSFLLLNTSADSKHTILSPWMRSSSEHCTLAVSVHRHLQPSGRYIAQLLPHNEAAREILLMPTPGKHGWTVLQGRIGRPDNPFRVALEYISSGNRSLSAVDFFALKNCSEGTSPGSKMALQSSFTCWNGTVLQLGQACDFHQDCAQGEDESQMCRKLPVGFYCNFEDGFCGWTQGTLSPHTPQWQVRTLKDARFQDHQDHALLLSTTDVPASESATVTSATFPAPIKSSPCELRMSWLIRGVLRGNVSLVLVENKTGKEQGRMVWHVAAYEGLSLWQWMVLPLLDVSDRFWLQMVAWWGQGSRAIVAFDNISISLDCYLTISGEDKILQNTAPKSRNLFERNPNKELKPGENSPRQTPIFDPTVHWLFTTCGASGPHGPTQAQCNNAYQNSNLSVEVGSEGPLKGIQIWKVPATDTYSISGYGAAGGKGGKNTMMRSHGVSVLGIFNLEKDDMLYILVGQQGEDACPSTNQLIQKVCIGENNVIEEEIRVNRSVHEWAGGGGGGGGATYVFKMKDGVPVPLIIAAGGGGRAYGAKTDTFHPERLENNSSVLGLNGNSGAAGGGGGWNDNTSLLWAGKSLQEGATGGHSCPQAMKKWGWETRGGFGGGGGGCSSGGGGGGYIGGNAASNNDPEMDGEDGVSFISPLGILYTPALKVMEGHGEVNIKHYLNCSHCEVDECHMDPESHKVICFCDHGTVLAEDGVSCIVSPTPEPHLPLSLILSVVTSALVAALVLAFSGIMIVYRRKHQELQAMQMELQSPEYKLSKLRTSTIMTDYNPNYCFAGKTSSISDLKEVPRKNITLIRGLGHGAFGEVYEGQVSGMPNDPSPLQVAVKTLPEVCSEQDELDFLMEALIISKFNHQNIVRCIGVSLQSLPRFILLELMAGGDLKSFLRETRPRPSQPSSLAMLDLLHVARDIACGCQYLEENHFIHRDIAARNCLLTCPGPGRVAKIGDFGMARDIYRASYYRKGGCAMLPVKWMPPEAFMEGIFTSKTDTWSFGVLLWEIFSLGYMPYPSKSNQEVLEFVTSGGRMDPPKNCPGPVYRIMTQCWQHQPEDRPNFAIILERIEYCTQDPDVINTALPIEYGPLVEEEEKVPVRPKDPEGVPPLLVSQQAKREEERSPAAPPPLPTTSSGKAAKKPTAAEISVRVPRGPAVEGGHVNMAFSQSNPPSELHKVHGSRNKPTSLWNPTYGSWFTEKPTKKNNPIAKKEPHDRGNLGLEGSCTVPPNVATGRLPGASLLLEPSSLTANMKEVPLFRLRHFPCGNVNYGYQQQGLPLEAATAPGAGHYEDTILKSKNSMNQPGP
T2 sequence (P08581 956-1390 limits assumed): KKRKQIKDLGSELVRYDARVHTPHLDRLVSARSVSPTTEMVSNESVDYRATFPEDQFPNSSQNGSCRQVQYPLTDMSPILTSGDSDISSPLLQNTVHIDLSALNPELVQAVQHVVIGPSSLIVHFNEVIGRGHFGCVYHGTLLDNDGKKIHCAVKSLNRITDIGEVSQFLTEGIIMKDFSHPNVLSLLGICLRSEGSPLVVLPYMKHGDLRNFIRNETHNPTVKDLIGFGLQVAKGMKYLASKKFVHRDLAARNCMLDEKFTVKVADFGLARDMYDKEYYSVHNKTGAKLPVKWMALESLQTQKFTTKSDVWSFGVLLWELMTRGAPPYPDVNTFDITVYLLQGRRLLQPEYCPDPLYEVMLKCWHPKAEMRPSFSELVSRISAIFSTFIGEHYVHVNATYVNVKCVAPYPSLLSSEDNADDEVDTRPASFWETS

Compound: COc1cc2c(cc1Nc1ncc(Cl)c(Nc3ccccc3S(=O)(=O)N(C)C)n1)CCN(Cc1nccn1C)CC2 [Example 1171, 2-{5-Chloro-2-[8-methoxy-3-(1-methyl-1H-imidazol-2-ylmethyl)-2,3,4,5-tetrahydro-1H-benzo[d]azepin-7-ylamino]-pyrimidin-4-ylamino}-N,N-dimethyl-benzenesulfonamide]
IC50 [1, 3]: < 100 nM
IC50 [2, 4]: 1000 to 10000 nM

Compound: COc1cc2c(cc1Nc1ncc(Cl)c(Nc3ccccc3S(=O)(=O)C(C)C)n1)CCN(CC(C)(F)F)CC2 [Example 828, 5-Chloro-N*2*-[3-(2,2-difluoro-propyl)-8-methoxy-2,3,4,5-tetrahydro-1H-benzo[d]azepin-7-yl]-N*4*-[2-(propane-2-sulfonyl)-phenyl]-pyrimidine-2,4-diamine]
IC50 [1, 5]: < 100 nM
IC50 [2, 6]: > 10000 nM

Compound: COCCN(C)C1CCc2ccc(Nc3ncc(Cl)c(N[C@@H]4CCCC[C@H]4NS(C)(=O)=O)n3)c(OC)c2CC1 (stereo partly drawn) [Example 702, N-[(1R,2R)-2-(5-Chloro-2-{1-methoxy-7-[(2-methoxy-ethyl)-methyl-amino]-6,7,8,9-tetrahydro-5H-benzocyclohepten-2-ylamino}-pyrimidin-4-ylamino)-cyclohexyl]-methanesulfonamide]
IC50 [1, 5]: < 100 nM
IC50 [2, 6]: > 10000 nM

Compound: COC(=O)c1sc(-c2ccccc2)c(C)c1Nc1nc(Nc2ccc3c(c2)CCOC(=O)N3C)ncc1Cl [Example 1762, 3-[5-Chloro-2-(5-methyl-6-oxo-5,6,8,9-tetrahydro-7-oxa-5-aza-benzocyclohepten-2-ylamino)-pyrimidin-4-ylamino]-4-methyl-5-phenyl-thiophene-2-carboxylic acid methyl ester]
IC50 [1, 7]: > 10000 nM
IC50 [2, 8]: > 10000 nM

Compound: CNC(=O)c1ccccc1Nc1nc(Nc2ccc3c(c2)C2CCC3CN(CCOC)C2)ncc1Cl (stereo not shown) [Example 282, 2-{5-Chloro-2-[10-(2-methoxy-ethyl)-10-aza-tricyclo[6.3.2.0*2,7*]trideca-2,4,6-trien-4-ylamino]-pyrimidin-4-ylamino}-N-methyl-benzamide]
IC50 [1, 9]: < 100 nM
IC50 [2, 10]: < 100 nM

Compound: COc1cc2c(cc1Nc1ncc(Cl)c(Nc3ccc(Cl)cc3S(=O)(=O)N(C)C)n1)CCN(CC(=O)N(C)C)CC2 [Example 832, 2-{7-[5-Chloro-4-(4-chloro-2-dimethylsulfamoyl-phenylamino)-pyrimidin-2-ylamino]-8-methoxy-1,2,4,5-tetrahydro-benzo[d]azepin-3-yl}-N,N-dimethyl-acetamide]
IC50 [1, 5]: < 100 nM
IC50 [2, 6]: > 10000 nM

Compound: CCN1C(=O)C(C)(C)CCc2c1ccc(Nc1ncc(Cl)c(Nc3ccc(N4CCOCC4)cc3OC)n1)c2OC [Example 141, 7-[5-Chloro-4-(2-methoxy-4-morpholin-4-yl-phenylamino)-pyrimidin-2-ylamino]-1-ethyl-6-methoxy-3,3-dimethyl-1,3,4,5-tetrahydro-benzo[b]azepin-2-one]
IC50 [1, 9]: 100 to 1000 nM
IC50 [2, 10]: > 10000 nM

Compound: CCOCn1ccnc1-c1ccccc1Nc1nc(Nc2ccc3c(c2)CCN(CCOC)CC3)ncc1Cl [Example 222, 5-Chloro-N*4*-[2-(1-ethoxymethyl-1H-imidazol-2-yl)-phenyl]-N*2*-[3-(2-methoxy-ethyl)-2,3,4,5-tetrahydro-1H-benzo[d]azepin-7-yl]-pyrimidine-2,4-diamine]
IC50 [1, 9]: < 100 nM
IC50 [2, 10]: 1000 to 10000 nM

Compound: C#CCNC(=O)c1cccc(F)c1Nc1nc(Nc2ccc3c(c2)N(C(=O)CN(C)C)CCCC3(C)C)ncc1Cl [Example 1631, 2-{5-Chloro-2-[1-(2-dimethylamino-acetyl)-5,5-dimethyl-2,3,4,5-tetrahydro-1H-benzo[b]azepin-8-ylamino]-pyrimidin-4-ylamino}-3-fluoro-N-prop-2-ynyl-benzamide]
IC50 [1, 7]: 100 to 1000 nM
IC50 [2, 8]: 100 to 1000 nM

Compound: COc1cc(N2CCOCC2)ccc1Nc1nc(Nc2ccc3c(c2)CCN(C[C@H](OC)C(F)(F)F)CC3)ncc1Cl [Example 337, 5-Chloro-N*4*-(2-methoxy-4-morpholin-4-yl-phenyl)-N*2*-[-((S)-3,3,3-trifluoro-2-methoxy-propyl)-2,3,4,5-tetrahydro-1H-benzo[d]azepin-7-yl]-pyrimidine-2,4-diamine]
IC50 [1, 9]: < 100 nM
IC50 [2, 10]: > 10000 nM

Compound: Cn1ccnc1-c1ccccc1Nc1nc(Nc2ccc3c(c2)CCC(NCC(F)(F)F)CC3)ncc1Cl (stereo not shown) [Example 655, 5-Chloro-N*4*-[2-(1-methyl-1H-imidazol-2-yl)-phenyl]-N*2*-[7-(2,2,2-trifluoro-ethylamino)-6,7,8,9-tetrahydro-5H-benzocyclohepten-2-yl]-pyrimidine-2,4-diamine]
IC50 [1, 5]: < 100 nM
IC50 [2, 6]: 100 to 1000 nM

Compound: CCN1CCN(CC)c2cc(Nc3ncc(Cl)c(N[C@@H]4CCCC[C@H]4NS(C)(=O)=O)n3)c(OC)cc2C1 [Example 1456, N-{(1R,2R)-2-[5-Chloro-2-(1,4-diethyl-7-methoxy-2,3,4,5-tetrahydro-1H-benzo[e][1,4]diazepin-8-ylamino)-pyrimidin-4-ylamino]-cyclohexyl}-methanesulfonamide]
IC50 [1, 7]: < 100 nM
IC50 [2, 8]: > 10000 nM

Compound: CCN1CCc2cc(Nc3ncc(Cl)c(Nc4ccc(N5CCN(C)CC5)cc4OC)n3)c(OC)cc2CC1=O [Example 772, 7-{5-Chloro-4-[2-methoxy-4-(4-methyl-piperazin-1-yl)-phenylamino]-pyrimidin-2-ylamino}-3-ethyl-8-methoxy-1,3,4,5-tetrahydro-benzo[d]azepin-2-one]
IC50 [1, 5]: < 100 nM
IC50 [2, 6]: > 10000 nM

Compound: CC(C)S(=O)(=O)c1cccc(F)c1Nc1nc(Nc2ccc3c(c2)NC(=O)CCC3)ncc1Cl [Example 1255, 8-{5-Chloro-4-[2-fluoro-6-(propane-2-sulfonyl)-phenylamino]-pyrimidin-2-ylamino}-1,3,4,5-tetrahydro-1-benzazepin-2-one]
IC50 [1, 3]: 100 to 1000 nM
IC50 [2, 4]: 1000 to 10000 nM

Compound: COCCN1CCc2ccc(Nc3ncc(Cl)c(Nc4ccccc4C(=O)NCC(C)C)n3)cc2CC1 [Example 1396, {5-Chloro-2-[3-(2-methoxy-ethyl)-2,3,4,5-tetrahydro-1H-benzo[d]azepin-7-ylamino]-pyrimidin-4-ylamino}-N-isobutyl-benzamide]
IC50 [1, 3]: < 100 nM
IC50 [2, 4]: 100 to 1000 nM

Compound: Cc1nnc(-c2ccccc2Nc2nc(Nc3ccc4c(c3)C(C)(C)CCC(=O)N4)ncc2Cl)s1 [Example 973, 7-{5-Chloro-4-[2-(5-methyl-[1,3,4]thiadiazol-2-yl)-phenylamino]-pyrimidin-2-ylamino}-5,5-dimethyl-1,3,4,5-tetrahydro-benzo[b]azepin-2-one]
IC50 [1, 5]: 100 to 1000 nM
IC50 [2, 6]: 1000 to 10000 nM

Next, values leading:

IC50 [1, 3]: 100 to 1000 nM
IC50 [2, 4]: 1000 to 10000 nM
Compound: COCCN1CCc2ccc(Nc3ncc(Cl)c(Nc4c(F)cccc4OCCCOCc4ccccc4)n3)cc2CC1 [Example 1284, N(4)-[2-(3-Benzyloxy-propoxy)-6-fluoro-phenyl]-5-chloro-N(2)-[3-(2-methoxy-ethyl)-2,3,4,5-tetrahydro-1H-3-benzazepin-7-yl]-pyrimidine-2,4-diamine]

IC50 [1, 3]: < 100 nM
IC50 [2, 4]: > 10000 nM
Compound: CNC(=O)c1ccc(Nc2nc(Nc3cc4c(cc3OC)CCN(C(COC)COC)CC4)ncc2Cl)c(OC)c1 [Example 1177, 4-{5-Chloro-2-[8-methoxy-3-(2-methoxy-1-methoxymethyl-ethyl)-2,3,4,5-tetrahydro-1H-benzo[d]azepin-7-ylamino]-pyrimidin-4-ylamino}-3-methoxy-N-methyl-benzamide]

IC50 [1, 9]: < 100 nM
IC50 [2, 10]: 1000 to 10000 nM
Compound: CCN1CCc2ccc(Nc3ncc(Cl)c(Nc4ccc(N5CCOCC5)cc4OC)n3)cc2CC1 [Example 442, 5-Chloro-N*2*-(3-ethyl-2,3,4,5-tetrahydro-1H-benzo[d]azepin-7-yl)-N*4*-(2-methoxy-4-morpholin-4-yl-phenyl)-pyrimidine-2,4-diamine]

IC50 [1, 3]: < 100 nM
IC50 [2, 4]: 1000 to 10000 nM
Compound: COCCNC1CCc2cc(Nc3ncc(Cl)c(Nc4ccccc4S(=O)(=O)N4CCC(O)C4)n3)c(OC)cc2CC1 (stereo not shown) [Example 1082, 1-(2-{5-Chloro-2-[3-methoxy-7-(2-methoxy-ethylamino)-6,7,8,9-tetrahydro-5H-benzocyclohepten-2-ylamino]-pyrimidin-4-ylamino}-benzenesulfonyl)-pyrrolidin-3-ol]

IC50 [1, 7]: < 100 nM
IC50 [2, 8]: 100 to 1000 nM
Compound: CN(CCC#N)C(=O)c1ccccc1Nc1nc(Nc2ccc3c(c2)CCCC(=O)N3C)ncc1Cl [Example 1682, 2-[5-Chloro-2-(1-methyl-2-oxo-2,3,4,5-tetrahydro-1H-benzo[b]azepin-7-ylamino)-pyrimidin-4-ylamino]-N-(2-cyano-ethyl)-N-methyl-benzamide]

IC50 [1, 9]: < 100 nM
IC50 [2, 10]: < 100 nM
Compound: CCN1CCN(CC)c2cc(Nc3ncc(Cl)c(Nc4ccccc4C(=O)NC)n3)ccc2C1=O [Example 418, 2-[5-Chloro-2-(1,4-diethyl-5-oxo-2,3,4,5-tetrahydro-1H-benzo[e][1,4]diazepin-8-ylamino)-pyrimidin-4-ylamino]-N-methylbenzamide]

IC50 [1, 7]: < 100 nM
IC50 [2, 8]: < 100 nM
Compound: CCNC(=O)c1cccc(F)c1Nc1nc(Nc2ccc3c(c2)NC(=O)CCC3(C)C)ncc1Cl [Example 1575, 2-[5-Chloro-2-(5,5-dimethyl-2-oxo-2,3,4,5-tetrahydro-1H-benzo[b]azepin-8-ylamino)-pyrimidin-4-ylamino]-N-ethyl-3-fluoro-benzamide]
